Reference: patent US9522978B2, “PI polyamide” (NIHON UNIVERSITY, priority 2013, dated 2016)

Columns and labels:
ACSL3 gene = assay: Examination of expression of ACSL3 gene by RT-PCR in LNCaP cells; format: cell-based, Human
Protocol: The expression of ACSL3 Gene was examined by RT-PCR in a cell into which each of the PI polyamides (1) to (3) was introduced. For comparison, the same examination was conducted for a cell into which the PI polyamide (control) was introduced.
The LNCaP cells were cultured for 3 days in the Phenol-Red-free medium of 3. (2) to which each of the PI polyamides was added at 5 μM. Subsequently, DHT (100 nM) of 4. was added into the medium to apply androgen stimulation.
After RNA is extracted from the cells by using Isogen (Nippon Gene) in accordance with a manual, cDNA was prepared by using PrimeScript (registered trademark) Reverse Transcriptase (manufactured by TaKaRa).
Each of the cDNAs prepared in 1) was used as a template DNA to examine with primers listed in Table 4 the presence/absence of expression of a fusion gene or an ERG gene in the prostate cancer cell into which each of the PI polyamides was introduced. In this RT-qPCR, Power SYBR (registered trademark) Green PCR Master Mix (manufactured by Applied Biosystems) was used.

ACSL3 protein = assay: Western blotting of ACSL3 protein from excised tumors; format: in vivo, Human; settings: nude mice, tail vein 6 mg/kg once per week for 4 weeks, FIG. 12
Protocol: (§1) To 7-week-old male nude mice (n=10), 3×10^6 prostate cancer cells (LNCaP) were subcutaneously injected at the right flank. A tumor size was monitored by caliper measurement every 3 days. When the tumor size reaches […], the PI polyamide (1) or the PI polyamide (control) dissolved in dH2O was injected from a tail vein at 6 mg/kg bodyweight (PI polyamide (1): n=4, PI polyamide (control): n=6).
(§2) The injection was performed once per week for 4 weeks and the tumor size was measured every week. After one week from the last injection, the nude mice were dissected to excise the tumors.
FIG. 12 depicts a result of western blotting with an ACSL3 antibody of protein extracted using a lysis buffer (NP40 buffer) from the excised tumors (two individuals #1 and #2) (upper portion of FIG. 12; lower portion indicates expression of β-actin protein).

[1] = system: Oct1 oligo DNA (Oct1 gene binding sequence, SEQ ID NO:1); assay: DNA Binding Assay (gel electrophoretic pattern); settings: 5 μl of 0.2 mM PI polyamide mixed with 15 μl hairpin double strand DNA, 37° C. 1 hour
Protocol: For each of the PI polyamides (1) to (3) (three types) generated in 5, a DNA Binding Assay of the following steps 1) and 2) was performed to confirm binding to the Oct1 gene binding sequence (SEQ ID NO:1). The PI polyamide (control) was also examined in terms of the presence/absence of binding to the Oct1 gene binding sequence (SEQ ID NO:1).
1) Molecules (50-base) were created that have Oct1 oligo DNA including the same base sequence as the Oct1 gene binding sequence (SEQ ID NO:1) labelled with FITC, and the oligo at a final concentration of 1 μM was heated to 100° C. in an annealing buffer (20 mM Tris-HCl, 2 mM EDTA, 200 mM NaCl). The oligo was cooled for 2 hours in stages to 30° C. As a result, the Oct1 oligo DNA underwent self-annealing and forms a double strand in a hairpin shape.
2) 15 μl of solution containing the hairpin-shaped double strand DNA of 1) was mixed with 5 μl of each of the 0.2 mM PI polyamides (1) to (3) and PI polyamide (control) and incubated at 37° C. for 1 hour to acquire a mixed solution.
3) The mixed solution of 2) was electrophoresed in 5-20% acrylamide gel (TBE buffer) and an electrophoretic pattern was monitored with LAS 4000 (manufactured by GE Healthcare Japan) to determine the presence/absence of binding from a difference in the electrophoretic pattern.

PSA promoter region = assay: Luciferase assay of AR activity in PSA promoter region (positive control); format: cell-based, Human; settings: LNCaP, compared to same amount of PI polyamide (control), FIG. 7
Protocol: (§3) About 1 kb of AR binding site (ARBS) located 63 kb upstream of the ACSL3 transcription start point was extracted (SEQ ID NO:10) and insert into a luciferase vector (pGL3 promoter vector: Promega, Madison, Wis.). This vector was used for transfection of a prostate cancer cell (LNCaP) cultured for about 60 hours in the Phenol-Red-free medium of 3. (2) by using FuGENE (registered trademark) HD (Roche Applied Science) as a transection reagent in accordance with the protocol thereof.
(§4) After about 12 hours, androgen stimulation using 100 nM of DHT and introduction of the PI polyamide (1) or PI polyamide (control) (1 μM or 5 μM) were performed and followed by a luciferase assay. This test was conducted by using prostate cancer cells (LNCaP) incorporated with a PSA promoter region (SEQ ID NO:22) known to have AR response activity as a positive control for the luciferase vector.

LNCaP cells [2] = assay: Evaluation of cell migration ability (cell migration assay); format: cell-based, Human; settings: 5 μM, 3 days, compared to PI polyamide (control), FIGS. 9 and 10
Protocol: After culturing cells into which the PI polyamide (1) was introduced and cells into which the PI polyamide (control) was introduced for comparison, the migration ability of the cells was examined by a cell migration assay using a cell culture insert and a 8.0 μm pore size PET filter (manufactured by Becton Dickinson).
In particular, after fibronectin (manufactured by Sigma) diluted with PBS to 10 μg/ml was allowed to act on a culture dish for 30 minutes to form a lower filter, 700 μl of the Phenol-Red-containing RPMI 1640 medium of 3. (1) was added to a lower chamber.
The LNCaP cells were cultured for 3 days in the Phenol-Red-containing medium of 3. (1) to which each of the PI polyamides was added at 5 μM and divided into units of 5×10^4 cells, and each unit of cells was suspended in 300 μl of the Phenol-Red-containing medium of 3. (1) and added to the upper chamber. After the cells were cultured at 37° C. under the condition of 5% CO2, the filter was peeled off.
The cells on the lower filter were fixed by methanol for 30 minutes and then incubated for 30 seconds in Gimsa's stain solution (manufactured by Muto Pure Chemicals). Subsequently, the cells were observed by a microscope of 200 magnifications to count the number of cells, thereby evaluating the cell migration ability.

LNCaP cells [3] = assay: Evaluation of proliferation ability by MTS assay; format: cell-based, Human
Protocol: After treatment with the PI polyamide (1) or the PI polyamide (control) for comparison, the proliferation ability of these cells were examined by MTS assay.
In particular, the LNCaP cells were seeded on a 96-well plate to 5×10^3 cells in total and cultured for 3 days in the Phenol-Red-free medium of 3. (2) to which each of the PI polyamides was added at 1 μM or 5 μM. Subsequently, DHT (100 nM) of 4. was added into the medium to apply androgen stimulation. After the stimulation, each of the cells were cultured for 24, 48, or 96 hours.
After the specified stimulation time, 10 μl of an MTS reagent (Cell Titer 96 AQueous One Solution Cell Proliferation Assay, Promega, Madison Wis.) was added to the cells before incubation for 1 hour. Subsequently, the absorbance (490 nm) of the cells was measured and the numbers of the cultured cells were examined to evaluate the cell proliferation ability.

[4] = system: prostate cancer cells (LNCaP) tumor; assay: Effect of the PI polyamide on a tumor in nude mice injected with LNCaP; format: in vivo; settings: tail vein 6 mg/kg once per week for 4 weeks, compared to PI polyamide (control), FIG. 11
Protocol: The effect of the PI polyamide on a tumor was confirmed.
as §1, §2

[5] = system: ACSL3 transcriptional regulatory region (AR response region); assay: Luciferase assay of AR activity in ACSL3 transcriptional regulatory region; format: cell-based, Human; settings: LNCaP, 1 μM or 5 μM, DHT 100 nM, compared to same amount of PI polyamide (control), FIG. 6
Protocol: as §3, §4

[6] = 5 μM, 3 days, androgen stimulation DHT 100 nM, FIG. 4
[7] = concentration and time not stated

| Compound | expression of the ACSL3 gene (ACSL3 gene; [6]) | expression of the ACSL3 protein in excised tumors (ACSL3 protein) | binding to the Oct1 oligo DNA (presence/absence) [1] | AR activity in the PSA promoter region (PSA promoter region) | expression of the ACSL3 gene (ACSL3 gene; 5 μM (1 μM or 5 μM tested), androgen stimulation, FIG. 5) | cell migration ability (invasive potential) (LNCaP cells [2]) | cell proliferation (LNCaP cells [3]; 5 μM, after 48 hours of incubation, compared to PI polyamide (control) 5 μM, FIG. 8) | cell proliferation (LNCaP cells [3]; 5 μM, after 96 hours of incubation, FIG. 8) | formation of tumor [4] | AR activity in the ACSL3 transcriptional regulatory region (AR response region) [5] | cell proliferation (LNCaP cells [3]; [7]) |
| --- | --- | --- | --- | --- | --- | --- | --- | --- | --- | --- | --- |
| AcPyPyPyImβImγPyβPyImβImβDp [PI polyamide (control), reference compound] | not inhibited | expressed | no binding occurs |  |  |  |  |  |  |  |  |
| CC(=O)Nc1cc(C(=O)Nc2cc(C(=O)NCCC(=O)Nc3cn(C)c(C(=O)Nc4cc(C(=O)Nc5cc(C(=O)NCCCC(=O)Nc6cc(C(=O)Nc7cn(C)c(C(=O)Nc8cc(C(=O)NCCC(=O)Nc9cn(C)c(C(=O)Nc%10cc(C(=O)NCCC(=O)NCCCN(C)C)n(C)c%10)n9)n(C)c8)n7)n(C)c6)n(C)c5)n(C)c4)n3)n(C)c2)n(C)c1 [PI polyamide (1), AcPyPyβImPyPyγPyImPyβImPyβDp] | inhibited | remarkably inhibited |  | no significant difference | particularly inhibited | significantly inhibited | significantly inhibited | further significantly inhibited | remarkably inhibited | significantly reduces |  |
| CC(=O)Nc1cn(C)c(C(=O)Nc2cc(C(=O)NCCC(=O)Nc3cc(C(=O)Nc4cc(C(=O)Nc5cc(C(=O)NCCCC(=O)Nc6cc(C(=O)Nc7cc(C(=O)Nc8cc(C(=O)NCCC(=O)Nc9cn(C)c(C(=O)Nc%10cc(C(=O)NCCC(=O)NCCCN(C)C)n(C)c%10)n9)n(C)c8)n(C)c7)n(C)c6)n(C)c5)n(C)c4)n(C)c3)n(C)c2)n1 [PI polyamide (2), AcImPyβPyPyPyγPyPyPyβImPyβDp] | inhibited |  |  |  |  | suppressed in the same way |  |  |  |  | suppressed in the same way |
| CC(=O)Nc1cc(C(=O)Nc2cc(C(=O)NCCC(=O)Nc3cc(C(=O)Nc4cc(C(=O)Nc5cc(C(=O)NCCCC(=O)Nc6cn(C)c(C(=O)Nc7cc(C(=O)Nc8cc(C(=O)NCCC(=O)Nc9cc(C(=O)Nc%10cc(C(=O)NCCC(=O)NCCCN(C)C)n(C)c%10)n(C)c9)n(C)c8)n(C)c7)n6)n(C)c5)n(C)c4)n(C)c3)n(C)c2)n(C)c1 [PI polyamide (3), AcPyPyβPyPyPyγImPyPyβPyPyβDp] | inhibited |  |  |  |  | suppressed in the same way |  |  |  |  | suppressed in the same way |
